Experimental findings from ChEMBL document CHEMBL5149967, “Chemical Highlights Supporting the Role of Lipid A in Efficient Biological Adaptation of Gram-Negative Bacteria to External Stresses” (J Med Chem, 2021) are described below.

A short description of assay [1]: Binding affinity to bacterial LpxA assessed as dissociation constant. Further details: species or system Bacteria.
Assay [2] is described as follows: Inhibition of bacterial LpxA. Further details: species or system Bacteria.
For assay [3], the system named is Escherichia coli. Nature of the assay: Antibacterial activity against Escherichia coli ATCC 25922 assessed as bacterial growth inhibition. The class given is functional, organism-based.
Assay [4] has as its system Escherichia coli. As to the kind of experiment: Antibacterial activity against Escherichia coli Delta tolC assessed as bacterial growth inhibition. It counts as functional, organism-based.
Assay [5] in a line: Inhibition of Escherichia coli BL21(DE3) LpxA.
Assay [6] relates to Klebsiella pneumoniae. As to the kind of experiment: Inhibition of Klebsiella pneumoniae LpxH relative to control. As to conditions: concentration not given here.
The subject of assay [7] is Klebsiella pneumoniae. Nature of the assay: Antibacterial activity against Klebsiella pneumoniae assessed as bacterial growth inhibition. It counts as functional.

≈ marks a conversion by molar mass, not a printed value. Residues, ends and D or L forms follow the SMILES beside them.

For `C/C(=C\C(=O)Nc1nnn[nH]1)c1cccc(C(F)(F)F)c1`, in assay [1], the Kd (usually the free concentration of one partner at which half of the binding sites on the other are occupied at equilibrium, for simple one-to-one binding) came out at 2.1 µM. As to `Cc1ccnc(-c2cc(C(=O)N3CCOC[C@H]3Cc3ccccc3)[nH]n2)c1`, the half-inhibitory concentration (IC50) (in general, the point on the concentration scale where inhibition reaches its midpoint) in assay [2] stood at 4.8 µM; in the assay with Escherichia coli [4], 2 µg/mL (≈ 5.52 µM). Further, in the assay with Escherichia coli [3], the MIC (usually the least concentration at which growth counts as inhibited) was above 128 µg/mL. For the same compound, in assay [1], the equilibrium dissociation constant (Kd) came to 110 µM. In turn, `CC[C@H](C)[C@H](NC(=O)[C@@H]1CCCN1C(=O)[C@H](CCC(=O)O)NC(=O)[C@H](CC(C)C)NC(=O)[C@H](CCSC)NC(=O)[C@H](Cc1c[nH]c2ccccc12)NC(=O)CN)C(=O)N[C@@H](C)C(=O)O` (H-GWMLEPIA-OH) gave a half-maximal inhibitory concentration (IC50) in assay [5] above 100 µM. Same read-out and setting: the figure for `CC[C@H](C)[C@H](NC(=O)[C@@H]1CCCN1C(=O)[C@H](CCC(=O)O)NC(=O)[C@H](CC(C)C)NC(=O)[C@H](CCSC)NC(=O)[C@H](Cc1c[nH]c2ccccc12)NC(=O)CNC(=O)[C@H](CO)NC(=O)[C@@H](N)CO)C(=O)N[C@@H](C)C(=O)NCC(=O)N[C@@H](CCCCN)C(=O)N[C@@H](Cc1c[nH]c2ccccc12)C(=O)O` (H-SSGWMLEPIAGKW-OH) is 9 µM; for `CC[C@H](C)[C@H](NC(=O)[C@@H]1CCCN1C(=O)[C@H](CC(=O)O)NC(=O)[C@H](CC(C)C)NC(=O)[C@H](CCSC)NC(=O)[C@H](Cc1c[nH]c2ccccc12)NC(=O)CN)C(=O)N[C@@H](C)C(=O)NCC(=O)N[C@@H](CCCCN)C(=O)N[C@@H](Cc1c[nH]c2ccccc12)C(=O)N[C@@H](CO)C(=O)N[C@@H](CCCNC(=N)N)C(=O)O` (H-GWMLDPIAGKWSR-OH) it is 0.077 µM.

Regarding `COc1ccc(C(=O)CN2C(=O)NC(c3ccccc3)(c3ccccc3)C2=O)cc1`, the concentration for half-maximal inhibition (IC50) in assay [2] is 1.4 µM; in the assay with Escherichia coli [3] it was above 16 µg/mL; in the assay on Escherichia coli [4] it was 0.5 µg/mL (≈ 1.25 µM). Also, the dissociation constant (Kd) in assay [1] was 0.1 µM.

`CC[C@H](C)[C@H](NC(=O)[C@@H]1CCCN1C(=O)[C@H](CCC(=O)O)NC(=O)[C@H](CC(C)C)NC(=O)[C@H](CCSC)NC(=O)[C@@H](N)Cc1c[nH]c2ccccc12)C(=O)O` (H-WMLEPI-OH) showed a half-maximal inhibitory concentration (IC50) in assay [5] above 100 µM. On to `CC[C@H](C)[C@H](NC(=O)[C@@H]1CCCN1C(=O)[C@H](CCC(=O)O)NC(=O)[C@H](CC(C)C)NC(=O)[C@H](CCSC)NC(=O)[C@H](Cc1c[nH]c2ccccc12)NC(=O)CNC(=O)[C@H](CO)NC(=O)[C@@H](N)CO)C(=O)N[C@@H](C)C(=O)NCC(=O)N[C@@H](CCCCN)C(=O)N[C@@H](Cc1c[nH]c2ccccc12)C(=O)N[C@@H](CO)C(=O)O` (H-SSGWMLEPIAGKWS-OH), for which it took 12 µM to reach half-maximal inhibition in assay [5] (IC50). `O=CN1CCc2cc(S(=O)(=O)N3CCN(c4cccc(Br)c4)CC3)ccc21`: the inhibition – broadly, the percentage by which the read-out fell short of the control – in the assay on Klebsiella pneumoniae [6] came out at 48%.

Regarding `O=C(COc1ccccc1)NNC1=CS(=O)(=O)c2ccccc21`, in assay [1], the dissociation constant (Kd) stood at 16.7 µM.

As to `CC[C@H](C)[C@H](NC(=O)[C@@H]1CCCN1C(=O)[C@H](CCC(=O)O)NC(=O)[C@H](CC(C)C)NC(=O)[C@H](CCSC)NC(=O)[C@H](Cc1c[nH]c2ccccc12)NC(=O)CN)C(=O)N[C@@H](C)C(=O)NCC(=O)N[C@@H](CCCCN)C(=O)N[C@@H](Cc1c[nH]c2ccccc12)C(=O)O` (H-GWMLEPIAGKW-OH), inhibition in assay [5] was half-maximal at 10 µM (IC50). For the compound `O=C(CCCCNC(=O)Nc1ccc(S(=O)(=O)N2CCN(c3cc(Cl)cc(C(F)(F)F)c3)CC2)cc1)NO`, in the assay with Klebsiella pneumoniae [7], the MIC came to 32 µg/mL (≈ 55.4 µM). In the assay on Klebsiella pneumoniae [6], this compound gave an inhibition of 79%. In turn, `CSCC[C@H](NC(=O)[C@@H](N)Cc1c[nH]c2ccccc12)C(=O)N[C@@H](CC(C)C)C(=O)N[C@@H](CCC(=O)O)C(=O)O` (H-WMLE-OH) had a concentration for half-maximal inhibition (IC50) in assay [5] above 100 µM. Consider `COc1cccc(Cl)c1C[C@@H]1COCCN1C(=O)c1cc(-c2cc(C)c(N)cn2)n[nH]1`, for which the IC50 is 0.6 µM in assay [2], 16 µg/mL (≈ 36.2 µM) in the assay on Escherichia coli [3] and below 0.125 µg/mL with Escherichia coli [4]. For `NC(Cc1c[nH]c2ccc([N+](=O)[O-])cc12)C(=O)O` (stereo not given), the Kd in assay [1] amounted to 13.6 µM. For `CC[C@H](C)[C@H](NC(=O)[C@@H]1CCCN1C(=O)[C@H](CC(=O)O)NC(=O)[C@H](CC(C)C)NC(=O)[C@H](CCSC)NC(=O)[C@@H](N)Cc1c[nH]c2ccccc12)C(=O)N[C@@H](C)C(=O)NCC(=O)N[C@@H](CCCCN)C(=O)N[C@@H](Cc1c[nH]c2ccccc12)C(=O)N[C@@H](CO)C(=O)N[C@@H](CCCNC(=N)N)C(=O)O` (H-WMLDPIAGKWSR-OH), in assay [5], the IC50 turned out to be 0.05 µM.
